Laboratory results reported in patent publication US7265130B2, “NPY Y5 antagonist” (Shionogi & Co., Ltd., priority 1999, dated 2007).

Assays:
human NPY Y5 receptor [1] = biological target: T1, human NPY Y5 receptor (Homo sapiens, UniProt Q15761); test: Affinity for NPY Y5 receptor ([125I] peptide YY binding, CHO cell membranes); conditions: inhibition of specific [125I] peptide YY binding, membranes of CHO cells expressing NPY Y5 receptor
T1 construct: expressed in transfected cells
T1 sequence (Q15761 1-445): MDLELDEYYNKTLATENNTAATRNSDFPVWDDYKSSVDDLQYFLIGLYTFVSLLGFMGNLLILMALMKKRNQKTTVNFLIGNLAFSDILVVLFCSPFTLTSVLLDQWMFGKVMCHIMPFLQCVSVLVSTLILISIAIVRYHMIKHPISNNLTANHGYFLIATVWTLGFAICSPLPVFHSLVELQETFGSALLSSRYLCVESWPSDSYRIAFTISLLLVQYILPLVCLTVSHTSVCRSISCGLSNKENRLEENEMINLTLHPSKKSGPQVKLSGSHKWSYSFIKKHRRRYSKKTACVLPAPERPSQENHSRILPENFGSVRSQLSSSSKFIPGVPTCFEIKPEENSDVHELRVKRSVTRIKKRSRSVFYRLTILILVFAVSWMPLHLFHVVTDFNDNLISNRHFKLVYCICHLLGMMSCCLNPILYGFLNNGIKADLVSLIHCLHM
Procedure, shortened: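 Membranes from CHO cells stably expressing human NPY Y5 receptor incubated with test compound and [125I] peptide YY (60 pM final) in HEPES-Hanks buffer with 0.1% BSA, pH 7.4, 25° C for 2 hours. Filter-bound radioactivity counted; non-specific binding with 200 nM peptide YY; IC50 against specific binding calculated.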

human NPY Y5 receptor [2] = biological target: T1, human NPY Y5 receptor; test: cAMP production inhibitory activity in CHO cells; format: cell-based; conditions: against 50 nM NPY inhibition of forskolin stimulated cAMP, CHO cells expressing human NPY Y5 receptor
Procedure, shortened: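 CHO cells expressing human NPY Y5 receptor preincubated 20 min at 37 °C with 2.5 mM IBMX, then with compound for 5 min. Stimulated with 50 nM NPY plus 10 μM forskolin for 30 min. Reaction stopped with 1N HCl; supernatant cAMP measured by EIA.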

NPY Y1 receptor = biological target: T2, NPY Y1 receptor (Homo sapiens, UniProt P25929); test: Affinity for NPY Y1 receptor (membranes from SK-N-MC cells); conditions: membranes from Y1-expression cells (human neuroblastoma, SK-N-MC); read-out: Binding IC50 for NPY Y1 receptor
T2 construct: membranes prepared from Y1-expression cells (human neuroblastoma, SK-N-MC); endogenous in cells; host or cells: SK-N-MC human neuroblastoma cells (membranes)
T2 sequence (P25929 1-384): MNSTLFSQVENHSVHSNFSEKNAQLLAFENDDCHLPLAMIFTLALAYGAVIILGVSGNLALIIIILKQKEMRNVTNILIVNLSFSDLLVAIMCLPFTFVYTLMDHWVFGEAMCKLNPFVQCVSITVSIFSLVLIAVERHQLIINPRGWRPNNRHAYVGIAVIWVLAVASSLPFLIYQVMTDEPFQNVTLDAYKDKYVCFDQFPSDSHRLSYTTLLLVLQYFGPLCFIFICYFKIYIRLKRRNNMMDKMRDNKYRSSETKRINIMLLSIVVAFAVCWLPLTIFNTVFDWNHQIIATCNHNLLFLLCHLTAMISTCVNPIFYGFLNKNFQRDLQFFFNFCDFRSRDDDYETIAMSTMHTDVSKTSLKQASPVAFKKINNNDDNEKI
Experimental: (§1) The membranes prepared from the above CHO cells expressing NPY Y5 receptor, the compound of the present invention and 30,000 cpm [^125I] peptide YY (60 pM of final concentration: Amersham) were incubated in the assay buffer (20 mM HEPES-Hanks buffer containing 0.1% bovine serum albumin, pH 7.4) at 25° C. for 2 hours, and then the mixture was filtered with a glassfilter GF/C treated with polyethyleneimine. After the glassfilter was washed with 50 mM Tris-HCl buffer (pH 7.4), the radioactivity on the filter was measured with a gamma counter. The non-specific binding was detected in the presence of 200 nM of peptide YY. The 50% inhibitory concentration of the test compound against the specific peptide YY binding (IC50 value) was calculated (Inui, A. et al. Endocrinology 131, 2090-2096 (1992)).
(§2) Using the membranes prepared from Y1-expression cells (human neuroblastoma, SK-N-MC) and the membranes prepared from Y2-expression cells (human neuroblastoma, SMS-KAN), the experiment was carried out in a similar way as Experiment 1 to determine the affinity for NPY Y1 receptor and NPY Y2 receptor.

NPY Y2 receptor = biological target: T3, NPY Y2 receptor (Homo sapiens, UniProt P49146); test: Affinity for NPY Y2 receptor (membranes from SMS-KAN cells); conditions: membranes from Y2-expression cells (human neuroblastoma, SMS-KAN); read-out: Binding IC50 for NPY Y2 receptor
T3 construct: membranes prepared from Y2-expression cells (human neuroblastoma, SMS-KAN); endogenous in cells; host or cells: SMS-KAN human neuroblastoma cells (membranes)
T3 sequence (P49146 1-381): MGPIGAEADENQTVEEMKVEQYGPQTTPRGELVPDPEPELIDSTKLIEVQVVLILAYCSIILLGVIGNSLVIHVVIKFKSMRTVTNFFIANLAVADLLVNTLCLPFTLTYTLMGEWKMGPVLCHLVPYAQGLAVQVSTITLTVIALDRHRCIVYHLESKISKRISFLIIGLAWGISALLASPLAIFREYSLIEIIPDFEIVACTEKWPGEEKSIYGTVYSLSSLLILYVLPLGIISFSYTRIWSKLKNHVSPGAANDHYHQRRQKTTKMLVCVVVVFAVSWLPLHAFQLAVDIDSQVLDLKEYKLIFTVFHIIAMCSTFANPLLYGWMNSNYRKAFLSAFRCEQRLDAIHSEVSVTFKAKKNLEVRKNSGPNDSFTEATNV
Experimental: as §1, §2

Row | SMILES | IC50 (human NPY Y5 receptor [1]) | IC50 (human NPY Y5 receptor [2]) | IC50 (NPY Y1 receptor) | IC50 (NPY Y2 receptor)
1 | C[C@@H]1CN(c2ccc(NC(=O)c3ccc(NS(=O)(=O)C(C)(C)C)cc3)cc2)C[C@H](C)O1 [Ia-124] | 1.1 nM | 22 nM | ≥ 100000 nM | ≥ 100000 nM
2 | CC(C)(C)S(=O)(=O)NC1CCC(C(=O)Nc2ccc(Br)cc2)CC1 (stereo not shown) [Compound I-63] | 1.3 nM | 50 nM | ≥ 100000 nM | ≥ 100000 nM
3 | CC(C)(C)S(=O)(=O)NC1CCC(C(=O)Nc2ccc(Cl)cc2Cl)CC1 (stereo not shown) [Ia-31] | 3.8 nM | 11 nM | ≥ 100000 nM | ≥ 100000 nM
4 | Cc1cc(N2C[C@@H](C)O[C@@H](C)C2)ccc1NC(=O)C1CCC(NS(=O)(=O)C(C)(C)C)CC1 (stereo partly shown) [Ia-28] | 5.2 nM | 130 nM | ≥ 100000 nM | ≥ 100000 nM
5 | CC(C)S(=O)(=O)NCCCCC(=O)Nc1ccc(N2C[C@@H](C)O[C@@H](C)C2)cc1 [Ia-3] | 9.2 nM | 150 nM | ≥ 100000 nM | ≥ 100000 nM
6 | C[C@@H]1CN(c2ccc(NC(=O)C3CCC(NS(=O)(=O)C(C)(C)C)CC3)cn2)C[C@H](C)O1 (stereo partly shown) [Ia-40] | 2.2 nM | 9.3 nM | ≥ 100000 nM | ≥ 100000 nM
7 | CC(C)(C)S(=O)(=O)NC1CCC(C(=O)Nc2ccc(-n3cccc3)cc2)CC1 (stereo not shown) [Compound I-61] | 0.26 nM | 5.3 nM | ≥ 100000 nM | ≥ 100000 nM
8 | CC(C)(C)S(=O)(=O)NC1CCC(C(=O)Nc2ccc(C(F)(F)F)cc2)CC1 (stereo not shown) [Compound I-212] | 0.67 nM | 7.5 nM | ≥ 100000 nM | ≥ 100000 nM
9 | CC(C)(C)S(=O)(=O)NC1CCC(C(=O)Nc2ccc3c(c2)OCO3)CC1 (stereo not shown) [Compound I-64] | 2.2 nM | 80 nM | ≥ 100000 nM | ≥ 100000 nM
10 | C[C@@H]1CN(c2ccc(NC(=O)C3CCC(NS(=O)(=O)C(C)(C)C)CC3)c(F)c2)C[C@H](C)O1 (stereo partly shown) [Ia-26] | 1.9 nM | 27 nM | ≥ 100000 nM | ≥ 100000 nM
11 | CC(C)(C)S(=O)(=O)NC1CCC(C(=O)NCc2cccc3ccccc23)CC1 (stereo not shown) [Compound I-154] | 1.1 nM | 11 nM | ≥ 100000 nM | ≥ 100000 nM
12 | CC(C)S(=O)(=O)NC1CCC(C(=O)Nc2ccc(N3C[C@@H](C)O[C@@H](C)C3)nc2)CC1 (stereo partly shown) [Ia-51] | 1.3 nM | 3.4 nM | ≥ 100000 nM | ≥ 100000 nM
13 | C[C@@H]1CN(c2ccc(NC(=O)[C@H]3CC[C@H](NS(=O)(=O)C(C)(C)C)CC3)cc2)C[C@H](C)O1 [Compound I-72] | 2.3 nM | 2.1 nM | ≥ 100000 nM | ≥ 100000 nM
14 | C[C@@H]1CN(c2ccc(NC(=O)N3CCC(NS(=O)(=O)C(C)(C)C)CC3)cc2)C[C@H](C)O1 [Ia-67] | 6.3 nM | 75 nM | ≥ 100000 nM | ≥ 100000 nM
15 | CC(C)(C)S(=O)(=O)NC1CCC(C(=O)Nc2ccc(N3CCOCC3)cc2)CC1 (stereo not shown) [Compound I-41] | 5.3 nM | 38.2 nM | ≥ 100000 nM | ≥ 100000 nM
16 | COc1ccc(NC(=O)C2CCC(NS(=O)(=O)C(C)(C)C)CC2)cc1OC (stereo not shown) [Ia-33] | 1.8 nM | 64 nM | ≥ 100000 nM | ≥ 100000 nM
17 | C[C@@H]1CN(c2ccc(NC(=O)C3CCC(NS(=O)(=O)C(C)(C)C)CC3)c(F)c2F)C[C@H](C)O1 (stereo partly shown) [Ia-29] | 1 nM | 7.3 nM | ≥ 100000 nM | ≥ 100000 nM
18 | COc1ccc(NC(=O)C2CCC(NS(=O)(=O)C(C)(C)C)CC2)cc1Cl (stereo not shown) [Ia-39] | 1.5 nM | 3.5 nM | ≥ 100000 nM | ≥ 100000 nM
19 | CC(C)(C)S(=O)(=O)NC1CCC(C(=O)Nc2ccc(I)cc2)CC1 (stereo not shown) [Compound I-47] | 0.6 nM | 14.9 nM | ≥ 100000 nM | ≥ 100000 nM
20 | CC(C)S(=O)(=O)NC1CCC(C(=O)Nc2ccc(C(F)(F)F)cc2)CC1 (stereo not shown) [Ia-140] | 1 nM | 24 nM | ≥ 100000 nM | ≥ 100000 nM
21 | CC(C)S(=O)(=O)NC1CCC(C(=O)Nc2ccc(N3C[C@@H](C)O[C@@H](C)C3)cc2)CC1 (stereo partly shown) [Ia-6] | 2.4 nM | 23 nM | ≥ 100000 nM | ≥ 100000 nM
22 | CC(C)(C)S(=O)(=O)Nc1ccc(C(=O)Nc2ccc3ncsc3c2)cc1 [Ia-126] | 2.3 nM | 58 nM | ≥ 100000 nM | ≥ 100000 nM
23 | C[C@@H]1C[C@H](C)CN(c2ccc(NC(=O)C3CCC(NS(=O)(=O)C(C)(C)C)CC3)cc2)C1 (stereo partly shown) [Ia-37] | 0.73 nM | 3.8 nM | ≥ 100000 nM | ≥ 100000 nM
24 | CCC(C)c1ccc(NC(=O)C2CCC(NS(=O)(=O)C(C)(C)C)CC2)cc1 (stereo not shown) [Ia-12] | 0.94 nM | 5.5 nM | ≥ 100000 nM | ≥ 100000 nM
25 | C[C@@H]1CN(c2ccc(NC(=O)[C@H]3CC[C@H](NS(=O)(=O)C(C)(C)C)CC3)cc2F)C[C@H](C)O1 [Ia-21] | 3.4 nM | 35 nM | ≥ 100000 nM | ≥ 100000 nM
